# Test results published in US11214594B2, “Antimicrobial peptide having synergistic antibacterial effect with antibiotics on multidrug resistant bacteria, and use thereof” (priority 2016, dated 2022).
# Like-named read-outs stand apart in the source and are kept apart here. Where a SMILES comes first, the peptide text is derived from it.
# Assays:
# A. baumannii [1] = assay: MIC of antibiotic during combined treatment with antimicrobial peptide; format: cell-based, Acinetobacter baumannii; conditions: A. baumannii
# Method in brief: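 Using MH broth, we determined combination MICs by titrating the antibiotic into wells and then repeating under the reverse dilution scheme.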
# MDRAB 12035 [2] = assay: as above; format: cell-based, Acinetobacter baumannii
# Method in brief: (§1)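 Broth microdilution in MH medium; strains were diluted to 2×10^6 CFU per ml before plating. Peptide was serially diluted stepwise at 2:1 starting from its MIC, and MH-diluted antibiotic was then added to determine MIC. The reversed arrangement was also tested.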
# P. aeruginosa = assay: microbe, parasite or virus in culture; format: cell-based, Pseudomonas aeruginosa
# Method in brief: (§2)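 MIC read-out = lowest peptide level with no bacterial proliferation. Strains diluted in MH medium to 2×10^6 CFU; peptide twofold serial dilutions in MH added 1:1 in microtiter wells.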
# MDREC 1229 = format: cell-based, Escherichia coli
# Method in brief: as §1
# E. coli = format: cell-based, Escherichia coli; conditions: E. coli
# Method in brief: as §1
# MDRAB 12035 [3] = assay: microbe, parasite or virus in culture; format: cell-based, Acinetobacter baumannii
# Method in brief: as §2
# A. baumannii [4] = assay: microbe, parasite or virus in culture; format: cell-based, Acinetobacter baumannii
# Method in brief: as §2
# [5] = combined with peptide at 2 μg/ml
# [6] = combined with peptide at 4 μg/ml
# [7] = combined with peptide at 6 μg/ml
# [8] = combined with peptide at 8 μg/ml
# [9] = combined with peptide at 16 μg/ml
# [10] = combined with peptide at 32 μg/ml
# [11] = combined with peptide at 64 μg/ml
# [12] = peptide treatment concentration 1 μg/ml
# [13] = peptide treatment concentration 2 μg/ml
# [14] = peptide treatment concentration 4 μg/ml
# [15] = peptide treatment concentration 6 μg/ml
# [16] = peptide treatment concentration 8 μg/ml
# [17] = peptide treatment concentration 16 μg/ml
# [18] = peptide treatment concentration 32 μg/ml
# [19] = peptide treatment concentration 64 μg/ml
# [20] = with Erythromycin […] (Conc./MIC 1)
smiles,measurement,setting,value
"CC[C@H](C)[C@H](NC(=O)[C@H](CCCCN)NC(=O)[C@H](Cc1c[nH]c2ccccc12)NC(=O)[C@@H](N)CCCNC(=N)N)C(=O)N[C@@H](Cc1ccccc1)C(=O)N[C@@H](CCCCN)C(=O)N[C@@H](CCCCN)C(=O)N[C@H](C(=O)N1CCC[C@H]1C(=O)N[C@@H](CCCCN)C(=O)N[C@@H](CC(C)C)C(=O)N[C@@H](CC(C)C)C(=O)N[C@@H](Cc1c[nH]cn1)C(=O)N[C@@H](CO)C(=O)N[C@@H](Cc1ccccc1)C(=O)N[C@@H](CCCCN)C(=O)N[C@@H](CCCCN)C(=O)N[C@@H](Cc1ccccc1)C(N)=O)[C@@H](C)CC [PapMA-7, RWK IFK KIP KLL HSF KKF-NH2] (H-RWKIFKKIPKLLHSFKKF-NH2; N-terminus assumed)","Antibiotic MIC, Erythromycin",A. baumannii [1]; [5],8 µg/mL
same,"Antibiotic MIC, Linezolid",A. baumannii [1]; [5],32 µg/mL
same,"Antibiotic MIC, Vancomycin",A. baumannii [1]; [5],64 µg/mL
same,"Antibiotic MIC, Erythromycin",A. baumannii [1]; [6],2 µg/mL
same,"Antibiotic MIC, Linezolid",A. baumannii [1]; [6],8 µg/mL
same,"Antibiotic MIC, Vancomycin",A. baumannii [1]; [6],16 µg/mL
same,"Antibiotic MIC, Erythromycin",A. baumannii [1]; [7],1 µg/mL
same,"Antibiotic MIC, Linezolid",A. baumannii [1]; [7],2 µg/mL
same,"Antibiotic MIC, Vancomycin",A. baumannii [1]; [7],4 µg/mL
same,"Antibiotic MIC, Erythromycin",A. baumannii [1]; [8],0.125 µg/mL
same,"Antibiotic MIC, Linezolid",A. baumannii [1]; [8],1 µg/mL
same,"Antibiotic MIC, Vancomycin",A. baumannii [1]; [8],2 µg/mL
same,"Antibiotic MIC, Erythromycin",A. baumannii [1]; [9],0 µg/mL
same,"Antibiotic MIC, Linezolid",A. baumannii [1]; [9],0 µg/mL
same,"Antibiotic MIC, Vancomycin",A. baumannii [1]; [9],0 µg/mL
same,"Antibiotic MIC, Erythromycin",A. baumannii [1]; [10],0 µg/mL
same,"Antibiotic MIC, Linezolid",A. baumannii [1]; [10],0 µg/mL
same,"Antibiotic MIC, Vancomycin",A. baumannii [1]; [10],0 µg/mL
same,"Antibiotic MIC, Erythromycin",A. baumannii [1]; [11],0 µg/mL
same,"Antibiotic MIC, Linezolid",A. baumannii [1]; [11],0 µg/mL
same,"Antibiotic MIC, Vancomycin",A. baumannii [1]; [11],0 µg/mL
same,Erythromycin MIC during combined treatment with peptide,MDRAB 12035 [2]; [12],8 µg/mL
same,Linezolid MIC during combined treatment with peptide,MDRAB 12035 [2]; [12],64 µg/mL
same,Vancomycin MIC during combined treatment with peptide,MDRAB 12035 [2]; [12],128 µg/mL
same,Erythromycin MIC during combined treatment with peptide,MDRAB 12035 [2]; [13],4 µg/mL
same,Linezolid MIC during combined treatment with peptide,MDRAB 12035 [2]; [13],32 µg/mL
same,Vancomycin MIC during combined treatment with peptide,MDRAB 12035 [2]; [13],32 µg/mL
same,Erythromycin MIC during combined treatment with peptide,MDRAB 12035 [2]; [14],2 µg/mL
same,Linezolid MIC during combined treatment with peptide,MDRAB 12035 [2]; [14],8 µg/mL
same,Vancomycin MIC during combined treatment with peptide,MDRAB 12035 [2]; [14],8 µg/mL
same,Erythromycin MIC during combined treatment with peptide,MDRAB 12035 [2]; [15],0.5 µg/mL
same,Linezolid MIC during combined treatment with peptide,MDRAB 12035 [2]; [15],4 µg/mL
same,Vancomycin MIC during combined treatment with peptide,MDRAB 12035 [2]; [15],4 µg/mL
same,Erythromycin MIC during combined treatment with peptide,MDRAB 12035 [2]; [16],0.125 µg/mL
same,Linezolid MIC during combined treatment with peptide,MDRAB 12035 [2]; [16],2 µg/mL
same,Vancomycin MIC during combined treatment with peptide,MDRAB 12035 [2]; [16],2 µg/mL
same,Erythromycin MIC during combined treatment with peptide,MDRAB 12035 [2]; [17],0.0625 µg/mL
same,Linezolid MIC during combined treatment with peptide,MDRAB 12035 [2]; [17],1 µg/mL
same,Vancomycin MIC during combined treatment with peptide,MDRAB 12035 [2]; [17],1 µg/mL
same,Erythromycin MIC during combined treatment with peptide,MDRAB 12035 [2]; [18],0 µg/mL
same,Linezolid MIC during combined treatment with peptide,MDRAB 12035 [2]; [18],0 µg/mL
same,Vancomycin MIC during combined treatment with peptide,MDRAB 12035 [2]; [18],0 µg/mL
same,Erythromycin MIC during combined treatment with peptide,MDRAB 12035 [2]; [19],0 µg/mL
same,Linezolid MIC during combined treatment with peptide,MDRAB 12035 [2]; [19],0 µg/mL
same,Vancomycin MIC during combined treatment with peptide,MDRAB 12035 [2]; [19],0 µg/mL
same,Minimal inhibitory concentration MIC,P. aeruginosa,16 µg/mL
same,Antibacterial activity (in words),P. aeruginosa; P. aeruginosa and S. typhimurium,significantly increased
same,Peptide MIC,MDREC 1229; [20],0 µg/mL
same,Peptide MIC,MDREC 1229; with Linezolid 512 μg/ml (Conc./MIC 1),0 µg/mL
same,Peptide MIC,E. coli; [20],0 µg/mL
same,Peptide MIC,E. coli; with Linezolid […] (Conc./MIC 1),0 µg/mL
same,Peptide MIC,E. coli; with Vancomycin 1024 μg/ml (Conc./MIC 1),0 µg/mL
same,Minimal inhibitory concentration MIC,MDRAB 12035 [3],32 µg/mL
same,"Peptide MIC, peptide alone",MDRAB 12035 [3],32 µg/mL
same,Minimal inhibitory concentration MIC,A. baumannii [4],16 µg/mL
same,"Peptide MIC, peptide alone",A. baumannii [4],16 µg/mL
